Experimental findings from patent publication EP0038046A2, “Pharmaceutical amides, and preparation, formulations and use thereof” (THE WELLCOME FOUNDATION LIMITED, priority 1980, dated 1981) are described below.

For one experiment, the target named is T1, enkephalinase (Rattus norvegicus, UniProt P07861).
T1 construct: from tissue; host or cells: rat striatum, crude washed membrane pellet (47,000 g)
T1 sequence (P07861 1-750): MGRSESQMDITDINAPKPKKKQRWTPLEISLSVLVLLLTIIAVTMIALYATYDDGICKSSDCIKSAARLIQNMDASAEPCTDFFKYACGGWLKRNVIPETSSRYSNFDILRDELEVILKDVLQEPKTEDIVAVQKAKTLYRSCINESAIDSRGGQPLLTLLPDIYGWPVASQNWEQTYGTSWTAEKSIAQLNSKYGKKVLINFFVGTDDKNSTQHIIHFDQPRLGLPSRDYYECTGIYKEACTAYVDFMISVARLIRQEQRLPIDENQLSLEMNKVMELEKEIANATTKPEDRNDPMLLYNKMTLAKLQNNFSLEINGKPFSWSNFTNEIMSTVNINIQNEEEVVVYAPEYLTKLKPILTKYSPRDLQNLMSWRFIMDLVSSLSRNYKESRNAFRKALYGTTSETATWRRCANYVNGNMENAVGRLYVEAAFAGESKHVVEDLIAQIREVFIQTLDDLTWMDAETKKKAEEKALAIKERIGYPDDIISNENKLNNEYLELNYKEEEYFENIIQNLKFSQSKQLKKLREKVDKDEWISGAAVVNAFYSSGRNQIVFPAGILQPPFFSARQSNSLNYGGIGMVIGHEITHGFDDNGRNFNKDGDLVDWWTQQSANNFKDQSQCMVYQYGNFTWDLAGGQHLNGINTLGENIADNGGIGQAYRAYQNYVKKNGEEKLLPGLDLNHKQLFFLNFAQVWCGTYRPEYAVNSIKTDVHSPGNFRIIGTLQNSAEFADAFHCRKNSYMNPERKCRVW
Description: Enkephalinase-inhibiting activity, method B (striatal membrane homogenate, 3H-leucine enkephalin hydrolysis to 3H-TGG). The experiment is classed as biochemical, rats. Conditions: method B (figures marked with an asterisk), 3H-leucine enkephalin 3 x 10^-8M, 22°C, only approximate due to catabolism of 3H-TGG by aminopeptidase(s), read-out: Approx IC50. Here is the method: B) The following method is-a modification of the method of Malfroy et al; Nature Vol..276, 30 November 1978 pages 523 to 526. Three rats were killed by decapitation and the striata dissected out on ice. The pooled tissues were homogenised in ice-cold Tris/hydrochloric acid buffer (50 mM, pH 7.60, 10.0 ml) and centrifuged (1000 g, 10 mins). The resulting supernatant was recentrifuged (47,000 g, 20 mins) and the second supernatant discarded. The pellet was washed twice and finally resuspended in buffer as before (9.6 ml) and aliquots (1.9 ml) of this suspension incubated at 22°C. […] At the completion of incubation N hydrochloric acid (50 μl) was added, the mixture heated in a boiling water bath for 15 mins and precipitated material then removed by centrifugation (1500 g, 10 mins). Separation of • (a) unchanged ^3H-leucine enkephalin, • ([…]-OH (^3H-TGG), generated from (a) by enkephalinase, and • (c) ^3H-Tyr-OH, generated from both (a) and (b) by aminopeptidase(s) in the supernatant and the subsequent procedure was carried out as described in method A) above.

The target of the next experiment is T2, enkephalinase Al (Rattus norvegicus, UniProt P07861).
T2 construct: the solubilised enzymes contained in the supernatant separated by DEAE- cellulose column chromatography; Enkephalinase Al was further purified by Sephacryl S.300 chromatography; from tissue; host or cells: rat striatum (Triton X-100 solubilised membrane pellet, DEAE-cellulose and Sephacryl S.300 chromatography)
T2 sequence (P07861 1-750): T1 sequence (P07861 1-750)
The experiment can be described thus: Enkephalinase-inhibiting activity, method A (purified enkephalinase A1, 3H-leucine enkephalin hydrolysis to 3H-TGG, TLC separation). Particulars: leucine enkephalin 5 x 10^-5M, 30°C, IC50 determined graphically, read-out: Approx IC50. It is filed as biochemical, Rats.

A further experiment relates to mice. Description: Antinociceptive activity, acetic acid writhing assay (modified Siegmund et al.). It is filed as in vivo. Here is the method: The antinociceptive activity of compound 1 was tested in vivo in mice using the following method:-
A modification of the writhing assay of Siegmund et al (Proc. Soc. exp. Biol. Med., 1957, 95: 727-731) was used. Compound 1 dissolved in saline, or saline alone, was administered intracerebroventricularly (i.c.v.) to groups of 5 mice at the doses shown below.-1 hour or 2 hours later, the mice were injected i.p. with the nonciceptive stimulus, i.e. 0.6% (v/v) aqueous acetic acid. […] An antinociceptive compound will reduce the number of writhes and this may be expressed as a percentage inhibition: [formula]
On the technique in general: In writhing tests, fewer writhes than in controls are read as antinociception.

A word on the IC50: it is the point on the concentration scale where inhibition reaches its midpoint. Turning to `CC(C)C[C@H](NC(=O)[C@@H](CC(=O)O)Cc1ccccc1)C(=O)O` [compound 2, (2S)-2-[(2R)-2-benzyl-3-carboxypropanamido]-4-methylpentanoic acid], the IC50 at enkephalinase came to 7.2 µM.
Still for that read-out and setting: the same measure for “(2$)-2-[(2R)-2-Benzyl-3-carboxypropanamido]-4-methylpentanamide [compound 10]”: above 100 µM.
For the compound `CC(C)C[C@H](NC(=O)[C@H](CC(=O)O)Cc1ccccc1)C(=O)O` [compound 3, (2S)-2-[(2S)-2-benzyl-3-carboxypropanamido]-4-methylpentanoic acid], on enkephalinase, the IC50 amounted to 4 µM.
`CC(C)C[C@H](NC(=O)C(CC(=O)O)Cc1ccc([N+](=O)[O-])cc1)C(=O)O` (stereo partly drawn) [compound 14]: the IC50 at enkephalinase Al was 65 µM.
Same read-out and setting: the same measure for `CSCC[C@@H](NC(=O)C(CC(=O)O)Cc1ccccc1)C(=O)O` (mixture of isomers) [compound 12, (2R)-2-[(2RS)-2-Benzyl-3-carboxypropanamido]-4-(methylthio)butanoic acid]: 19 µM; for `CSCC[C@H](NC(=O)C(CC(=O)O)Cc1ccccc1)C(=O)O` (mixture of isomers) [compound 13, (2S)-2-[(2RS)-2-Benzyl-3-carboxypropanamido]-4-(methylthio)butanoic acid]: 4.3 µM.
On the same count and under the same terms, the same measure for `C[C@H](CS)C(=O)N1CCC[C@H]1C(=O)O` [Captopril, 1-(D-3-mercapto-2-methylpropanoyl)-L-proline (R,S), reference compound]: 3000 µM.
With `CC(C)C[C@H](NC(=O)C(CC(=O)O)Cc1ccccc1)C(=O)O` (mixture of isomers) [compound 1, (2S)-2-[(2RS)-2-Benzyl-3-carboxypropanamido]-4-methylpentanoic acid], the IC50 on enkephalinase Al was found to be 17 µM. Moreover, the “% inhibition of writhes” value was “slight potentiation” in the experiment with mice (5 µg mouse i.c.v., 1h prior to acetic acid); 36% in the experiment with mice (5 µg mouse i.c.v., 2h prior to acetic acid); 28% in the experiment with mice (10 µg mouse i.c.v., 1h prior to acetic acid); 48% in the experiment with mice (10 µg mouse i.c.v., 2h prior to acetic acid); 32% in the experiment on mice (20 µg mouse i.c.v., 1h prior to acetic acid); 44% in the experiment with mice (20 µg mouse i.c.v., 2h prior to acetic acid). Also, the “% inhibition of writhes” value in the experiment with mice (40 µg mouse i.c.v., 1h prior to acetic acid) stood at 75%; with mice (40 µg mouse i.c.v., 2h prior to acetic acid) it was 84%.
In the case of `CC(C)C[C@H](NC(=O)C(CS)Cc1ccccc1)C(N)=O` (mixture of isomers) [compound 9, (2S)-2-[(2RS)-2-Benzyl-3-mercaptopropanamido]-4-methylpentanamide], the IC50 at enkephalinase Al stood at 0.33 µM.
Still for that read-out and setting: the same measure for `CC(C)C[C@H](NC(=O)[C@@H](CC(=O)O)Cc1ccccc1)C(N)=O` [compound 4, (2S)-2-[(2R)-2-Eenzyl-3-carboxypropanamido]-4-methylpentanamide]: above 100 µM.
For the compound `CC(C)C[C@@H](NC(=O)C(CC(=O)O)Cc1ccccc1)C(=O)O` (stereo partly drawn) [compound 11, (2R)-2-[(2RS)-2-Benzyl-3-carboxypropanamido,]-4-methylpentanoic acid], on enkephalinase Al, the IC50 is above 500 µM.
Turning to `CSCC[C@@H](NC(=O)C(CS)Cc1ccccc1)C(=O)O` (stereo partly drawn) [compound 15, (2R)-2-[2RS-2-Benzyl-3-mercaptopropanamido]-4-(methylthio)-butanoic acid], the IC50 at enkephalinase Al was 0.15 µM.
Same read-out and setting: the same measure for “(2S)-2-[(2RS)-3-Acetylthio-2-benzylpropanamido]-4-methylpentanoic acid, dicyclohexylamine salt [compound 6]”: 11 µM.
